Results reported in the CheMixHub viscosity set.
Where “and” joins values, the source holds several entries; their conditions need not be identical. Equal entries are not always repeated. ± gives the uncertainty stated by the source.

C1CCNCC1
101 kPa
Settings	viscosity [mPa·s]
298.15 K	1.31 ± 0.04
303.15 K	1.21 ± 0.038
323.15 K	0.757 ± 0.02

C1CC[C@H]2CCCC[C@H]2C1
viscosity [mPa·s]
Settings	293.15 K	303.15 K	313.15 K	323.15 K
100 kPa	–	2.704 ± 0.07	2.214 ± 0.056	1.861 ± 0.047
101 kPa	3.337 ± 0.076	2.444 ± 0.057	–	–
101.3 kPa	3.361 ± 0.05	2.641 ± 0.04	–	–

CC(=O)OC(C)C
101 kPa
Settings	viscosity
298.15 K	0.49 ± 0.0034 mPa·s
308.15 K	0.4342 ± 0.0031 mPa·s and 0.4323 ± 0.0096 mPa·s

CC(CC(C)(C)C)CC(C)(C)CC(C)(C)C (centres undefined)
viscosity
Settings	293.15 K	298.15 K	303.15 K	313.15 K	323.15 K
100 kPa	3.64 ± 0.23 mPa·s and 3.64 ± 0.17 mPa·s and 3.782 ± 0.098 mPa·s (2×)	–	2.984 ± 0.078 mPa·s	2.43 ± 0.16 mPa·s and 2.43 ± 0.11 mPa·s and 2.411 ± 0.062 mPa·s (2×)	2.01 ± 0.13 mPa·s and 2.01 ± 0.09 mPa·s and 2.018 ± 0.051 mPa·s (2×)
101.33 kPa	–	3.343 ± 0.041 mPa·s	–	–	–

CC(O)=S
Settings	viscosity
298.1 K, 101 kPa	0.687 ± 0.051 mPa·s and 0.687 ± 0.046 mPa·s

CCCC(=O)O
viscosity
Settings	293.15 K	303.15 K	313.15 K	323.15 K
101 kPa	1.778 ± 0.047 mPa·s and 1.54 ± 0.04 mPa·s and 1.78 ± 0.05 mPa·s	1.296 ± 0.062 mPa·s and 1.331 ± 0.016 mPa·s and 1.33 ± 0.034 mPa·s	1.12 ± 0.029 mPa·s	0.9885 ± 0.0098 mPa·s
101.33 kPa	1.623 ± 0.016 mPa·s	–	1.184 ± 0.012 mPa·s	–

CCCC(C)O (centres undefined)
Settings	viscosity
293.15 K, 101.33 kPa	3.376 ± 0.34 mPa·s
298.15 K, 100 kPa	3.426 ± 0.14 mPa·s
298.15 K, 101 kPa	3.38 ± 0.059 mPa·s and 3.2 ± 0.13 mPa·s
298.15 K, 101.3 kPa	3.45 ± 0.095 mPa·s
303 K, 101.33 kPa	2.677 ± 0.069 mPa·s
303.15 K, 101 kPa	2.739 ± 0.084 mPa·s
303.15 K, 101.33 kPa	2.763 ± 0.28 mPa·s and 2.888 ± 0.038 mPa·s and 2.887 ± 0.033 mPa·s
308.15 K, 101 kPa	2.312 ± 0.072 mPa·s
308.15 K, 101.3 kPa	2.32 ± 0.064 mPa·s
313 K, 101.33 kPa	2.014 ± 0.052 mPa·s
313.15 K, 101 kPa	1.943 ± 0.061 mPa·s
313.15 K, 101.3 kPa	1.92 ± 0.053 mPa·s
313.15 K, 101.33 kPa	2.017 ± 0.027 mPa·s
318.15 K, 101 kPa	1.674 ± 0.03 mPa·s
323.15 K, 101 kPa	1.479 ± 0.048 mPa·s
323.15 K, 101.33 kPa	1.521 ± 0.15 mPa·s

CCCCBr
101 kPa
Settings	viscosity
295.95 K	0.6116 ± 0.013 mPa·s
298.15 K	0.606 ± 0.016 mPa·s
303.45 K	0.5621 ± 0.012 mPa·s
308.15 K	0.552 ± 0.015 mPa·s and 0.5235 ± 0.0045 mPa·s
313.25 K	0.5057 ± 0.011 mPa·s
318.15 K	0.502 ± 0.014 mPa·s
323.15 K	0.476 ± 0.013 mPa·s

CCCCCCCBr
101 kPa
Settings	viscosity [mPa·s]
293.15 K	1.205 ± 0.026
303.15 K	1.05 ± 0.023
313.15 K	0.925 ± 0.02
323.15 K	0.82 ± 0.018

CCCCCCCC[n+]1ccc2ccccc2c1.O=S(=O)([N-]S(=O)(=O)C(F)(F)F)C(F)(F)F
101 kPa
Settings	viscosity
298.15 K	369.3 ± 25 mPa·s and 369.3 ± 14 mPa·s
308.15 K	191 ± 8.9 mPa·s and 191 ± 5.4 mPa·s
318.15 K	108.7 ± 3.6 mPa·s and 108.7 ± 2.2 mPa·s

CCCCCCn1cc[n+](C)c1C.O=S(=O)([N-]S(=O)(=O)C(F)(F)F)C(F)(F)F
100 kPa
Settings	viscosity [mPa·s]
293.15 K	172 ± 5
298.15 K	129 ± 4
303.15 K	99 ± 2
308.15 K	78 ± 2

CCCCNCCCC
viscosity
Settings	293.15 K	298.15 K	303.15 K	308.15 K	313.15 K	318.15 K	323.15 K
100 kPa	–	0.81 ± 0.03 mPa·s	0.75 ± 0.03 mPa·s	0.71 ± 0.03 mPa·s	–	–	–
101 kPa	–	–	0.764 ± 0.015 mPa·s and 0.7734 ± 0.0098 mPa·s	0.7184 ± 0.0091 mPa·s and 0.6757 ± 0.011 mPa·s	0.6692 ± 0.0085 mPa·s	0.6249 ± 0.008 mPa·s	0.5859 ± 0.0075 mPa·s
101.33 kPa	0.85 ± 0.009 mPa·s	0.81 mPa·s	0.73 ± 0.008 mPa·s	0.698 mPa·s	0.64 ± 0.007 mPa·s	0.611 mPa·s	0.56 ± 0.006 mPa·s

CCCC[N+](C)(CCCC)CCCC.N#C[N-]C#N
101 kPa
Settings	viscosity [mPa·s]
293.15 K	497.7 ± 40
303.15 K	238.9 ± 15
313.15 K	127.3 ± 6.3
323.15 K	74.87 ± 3.2

CCC[N+]1(C)CCCC1.O=S(=O)([N-]S(=O)(=O)C(F)(F)F)C(F)(F)F
viscosity [mPa·s]
Settings	293.15 K	298.15 K	303.15 K	308.15 K	313.15 K	318.15 K	323.15 K
101 kPa	–	–	–	–	34.4 ± 3.6	–	–
101.3 kPa	76.4 ± 15	61.2 ± 12	49.8 ± 10	41.1 ± 8.2	34.4 ± 6.9	29.2 ± 5.8	25 ± 5

CCN(C=O)CC
viscosity [mPa·s]
Settings	298.15 K	298.16 K	308.15 K	323.15 K
101 kPa	1.25 ± 0.03	1.139 ± 0.011	1.03 ± 0.03	0.86 ± 0.02
101.33 kPa	1.254 ± 0.008	–	–	0.851 ± 0.006

CC[N+](CC)(CC)CC.[OH-]
viscosity [mPa·s]
Settings	298.15 K	303.15 K	308.15 K	313.15 K
100 kPa	4.94 ± 0.1	4.72 ± 0.1	4.43 ± 0.09	4.27 ± 0.09
101 kPa	4.94	4.72	4.43	4.27
